{
  "source": "paper PMC10498670",
  "key": {"[1]": {"test": "Multicomponent nitrilium-trapping macrocyclisation: Pro NH + EtCHO (1.5 equiv), Pinc2 (ethyl 2-isocyano-2-(triphenylphosphanylidene)acetate, 1.5 equiv), AcOH (0.1 equiv); carboxylate traps the nitrilium, then Wittig to the oxazole (18 h)", "conditions": "the molecule shown is the open-chain precursor, 1:1 DCE/MeCN, 25.0 mM, 50.0 °C, 12 steps"}, "[2]": {"test": "Multicomponent nitrilium-trapping macrocyclisation: Pro NH + EtCHO (1.5 equiv) gives an iminium, Pinc (N-isocyanoimino)triphenylphosphorane (1.2 equiv) adds, C-terminal benzoate traps the nitrilium, then aza-Wittig to the 1,3,4-oxadiazole (18 h)", "conditions": "the molecule shown is the open-chain precursor, 1:1 DCE/MeCN, 25.0 mM, 50.0 °C, 12 steps"}},
  "data": [
    {"smiles": "Cc1cccc(NC(=O)CNC(=O)[C@H](CC(C)C)NC(=O)[C@H](C)NC(=O)CNC(=O)[C@@H]2CCCN2)c1C(=O)O", "note": "[H-Pro-Gly-Ala-Leu-Gly-(2-amino-6-methylbenzoic acid)-OH]", "values": [
      {"measurement": "ring closure, overall yield", "setting": "[1]; 22-membered ring, 18.0 h", "value": 0, "unit": "%"},
      {"measurement": "ring closure, overall yield", "setting": "[2]; 22-membered ring", "value": 18, "unit": "%"}
    ]},
    {"smiles": "CC(C)C[C@H](NC(=O)[C@H](C)NC(=O)CNC(=O)[C@@H]1CCCN1)C(=O)NCC(=O)Nc1ccccc1C(=O)O", "note": "[H-Pro-Gly-Ala-Leu-Gly-(2-aminobenzoic acid)-OH]", "values": [
      {"measurement": "ring closure, overall yield", "setting": "[1]; 22-membered ring, 18.0 h", "value": 0, "unit": "%"},
      {"measurement": "ring closure, overall yield", "setting": "[2]; 22-membered ring", "value": 15, "unit": "%"}
    ]},
    {"smiles": "Cc1c(NC(=O)CNC(=O)[C@H](CC(C)C)NC(=O)[C@H](C)NC(=O)CNC(=O)[C@@H]2CCCN2)cccc1C(=O)O", "note": "[H-Pro-Gly-Ala-Leu-Gly-(3-amino-2-methylbenzoic acid)-OH]", "values": [
      {"measurement": "ring closure, overall yield", "setting": "[1]; 23-membered ring, 18.0 h", "value": 23, "unit": "%"},
      {"measurement": "ring closure, overall yield", "setting": "[2]; 23-membered ring", "value": 25, "unit": "%"}
    ]},
    {"smiles": "CC(C)C[C@H](NC(=O)[C@H](C)NC(=O)CNC(=O)[C@@H]1CCCN1)C(=O)NCC(=O)Nc1cccc(C(=O)O)c1", "note": "[H-Pro-Gly-Ala-Leu-Gly-(3-aminobenzoic acid)-OH]", "values": [
      {"measurement": "ring closure, overall yield", "setting": "[1]; 23-membered ring, 18.0 h", "value": 35, "unit": "%"},
      {"measurement": "ring closure, overall yield", "setting": "[2]; 23-membered ring", "value": 38, "unit": "%"}
    ]},
    {"smiles": "CC(C)C[C@H](NC(=O)[C@H](C)NC(=O)CNC(=O)[C@@H]1CCCN1)C(=O)NCC(=O)Nc1ccc(C(=O)O)c(Cl)c1", "note": "[H-Pro-Gly-Ala-Leu-Gly-(4-amino-2-chlorobenzoic acid)-OH]", "values": [
      {"measurement": "ring closure, overall yield", "setting": "[1]; 24-membered ring", "value": 0, "unit": "%"},
      {"measurement": "ring closure, overall yield", "setting": "[2]; 24-membered ring", "value": 17, "unit": "%"}
    ]},
    {"smiles": "CC(C)C[C@H](NC(=O)[C@H](C)NC(=O)CNC(=O)[C@@H]1CCCN1)C(=O)NCC(=O)Nc1ccc(C(=O)O)cc1", "note": "[H-Pro-Gly-Ala-Leu-Gly-(4-aminobenzoic acid)-OH]", "values": [
      {"measurement": "ring closure, overall yield", "setting": "[1]; 24-membered ring", "value": 0, "unit": "%"},
      {"measurement": "ring closure, overall yield", "setting": "[2]; 24-membered ring", "value": 18, "unit": "%"}
    ]},
    {"smiles": "CC(C)C[C@H](NC(=O)CNC(=O)[C@@H]1CCCN1)C(=O)N[C@@H](CC(=O)OC(C)(C)C)C(=O)N[C@H](C(=O)Nc1cccc(C(=O)O)c1)[C@@H](C)OC(C)(C)C", "note": "[H-Pro-Gly-Leu-Asp(OtBu)-Thr(OtBu)-(3-aminobenzoic acid)-OH]", "values": [
      {"measurement": "ring closure, overall yield", "setting": "[1]; 23-membered ring, 18.0 h", "value": 21, "unit": "%"},
      {"measurement": "ring closure, overall yield", "setting": "[2]; 23-membered ring", "value": 27, "unit": "%"}
    ]}
  ]
}
